# Patent publication US12077503B2, “Substituted cyclic amides and their use as herbicides” (FMC CORPORATION, priority 2015, dated 2024)
# Experiments:
# Type in all cases: in vivo
# [1] = tested on: Galium (catchweed bedstraw, Galium aparine); assay: Test C postemergence; conditions: scale 0 to 100, 0 no effect, 100 complete control
# Outline: (§1)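 Visual 0 (no effect) to 100 (complete control) ratings versus controls, taken 13–15 d after treatment in the greenhouse; dash means no result. Compounds in a surfactant-containing non-phytotoxic solvent blend were applied preemergence to seeds in loam-sand soil or postemergence to 1- to 4-leaf plants (2–18 cm) in peat-based medium.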
# [2] = tested on: Kochia (Kochia scoparia); assay: Test C postemergence; conditions: scale 0 to 100, 0 no effect, 100 complete control
# Outline: as §1
# [3] = tested on: barnyardgrass (Echinochloa crus-galli); assay: Test C postemergence; conditions: scale 0 to 100, 0 no effect, 100 complete control
# Outline: as §1
# [4] = tested on: crabgrass, large (large crabgrass, Digitaria sanguinalis); assay: Test C postemergence; conditions: scale 0 to 100, 0 no effect, 100 complete control
# Outline: as §1
# [5] = tested on: johnsongrass (Sorghum halepense); assay: Test C postemergence; conditions: scale 0 to 100, 0 no effect, 100 complete control
# Outline: as §1
# [6] = tested on: lambsquarters (Chenopodium album); assay: Test C postemergence; conditions: scale 0 to 100, 0 no effect, 100 complete control
# Outline: as §1
# [7] = tested on: oat, wild (wild oat, Avena fatua); assay: Test C postemergence; conditions: scale 0 to 100, 0 no effect, 100 complete control
# Outline: as §1
# [8] = tested on: oilseed rape (Brassica napus); assay: Test C postemergence; conditions: scale 0 to 100, 0 no effect, 100 complete control
# Outline: as §1
# [9] = tested on: pigweed (Amaranthus retroflexus); assay: Test C postemergence; conditions: scale 0 to 100, 0 no effect, 100 complete control
# Outline: as §1
# [10] = tested on: ragweed (common ragweed, Ambrosia elatior); assay: Test C postemergence; conditions: scale 0 to 100, 0 no effect, 100 complete control
# Outline: as §1
# [11] = tested on: velvetleaf (Abutilon theophrasti); assay: Test C postemergence; conditions: scale 0 to 100, 0 no effect, 100 complete control
# Outline: as §1
# [12] = tested on: wheat (winter wheat, Triticum aestivum); assay: Test C postemergence; conditions: scale 0 to 100, 0 no effect, 100 complete control
# Outline: as §1
# [13] = tested on: Russian thistle (Salsola kali); assay: Test D preemergence; conditions: scale 0 to 100
# Text: (§2) Seeds of plant species selected from bluegrass (annual bluegrass, Poa annua), blackgrass (Alopecurus myosuroides), canarygrass (littleseed canarygrass, Phalaris minor), chickweed (common chickweed, Stellaria media), Galium (catchweed bedstraw, Galium aparine), bromegrass, downy (downy bromegrass, Bromus tectorum), field poppy (Papaver rhoeas), field violet (Viola arvensis), foxtail, green (green foxtail, Setaria viridis), deadnettle (henbit deadnettle, Lamium amplexicaule), ryegrass, Italian (Italian ryegrass, Lolium multiflorum), Kochia (Kochia scoparia), lambsquarters (Chenopodium album), oilseed rape (Brassica napus), pigweed (Amaranthus retroflexus), chamomile (scentless chamomile, Matricaria inodora), Russian thistle (Salsola kali), speedwell (bird's-eye speedwell, Veronica persica), barley, spring (spring barley, Hordeum vulgare), wheat, spring (spring wheat, Triticum aestivum), buckwheat, wild (wild buckwheat, Polygonum convolvulus), mustard, wild (wild mustard, Sinapis arvensis), oat, wild (wild oat, Avena fatua), radish, wild (wild radish, Raphanus raphanistrum), windgrass (Apera spica-venti), barley, winter (winter barley Hordeum vulgare), and wheat, winter (winter wheat, Triticum aestivum) were planted into a silt loam soil and treated preemergence with test chemicals formulated in a non-phytotoxic solvent mixture which included a surfactant.
# (§3) Treated plants and controls were maintained in a controlled growth environment approximately 21 d after which time all species were compared to controls and visually evaluated. Plant response ratings, summarized in Table D, are based on a scale of 0 to 100 where 0 is no effect and 100 is complete control. A dash (-) response means no test result.
# [14] = tested on: barley, spring (spring barley, Hordeum vulgare); assay: Test D preemergence; conditions: scale 0 to 100
# Text: as §2, §3
# [15] = tested on: buckwheat, wild (wild buckwheat, Polygonum convolvulus); assay: Test D preemergence; conditions: scale 0 to 100
# Text: as §2, §3
# [16] = tested on: canarygrass (littleseed canarygrass, Phalaris minor); assay: Test D preemergence; conditions: scale 0 to 100
# Text: as §2, §3
# [17] = tested on: deadnettle (henbit deadnettle, Lamium amplexicaule); assay: Test D preemergence; conditions: scale 0 to 100
# Text: as §2, §3
structure (smiles),measurement,setting,value
"CN1C[C@H](c2ccc(F)c(F)c2)[C@@H](C(=O)Nc2ccccc2F)C1=O [Compound 596, (3S,4S)-4-(3,4-difluorophenyl)-N-(2-fluorophenyl)-1-methyl-2-oxo-3-pyrrolidinecarboxamide]","Plant response rating, Galium",[1]; 31 g ai/ha,40
same,"Plant response rating, Galium",[1]; 62 g ai/ha,45
same,"Plant response rating, Galium",[1]; 125 g ai/ha,60
same,"Plant response rating, Galium",[1]; 250 g ai/ha,60
same,"Plant response rating, Kochia",[2]; 31 g ai/ha,30
same,"Plant response rating, Kochia",[2]; 62 g ai/ha,30
same,"Plant response rating, Kochia",[2]; 125 g ai/ha,35
same,"Plant response rating, Kochia",[2]; 250 g ai/ha,60
same,"Plant response rating, Barnyardgrass",[3]; 31 g ai/ha,0
same,"Plant response rating, Barnyardgrass",[3]; 62 g ai/ha,30
same,"Plant response rating, Barnyardgrass",[3]; 125 g ai/ha,45
same,"Plant response rating, Barnyardgrass",[3]; 250 g ai/ha,65
same,"Plant response rating, Crabgrass, Large",[4]; 31 g ai/ha,30
same,"Plant response rating, Crabgrass, Large",[4]; 62 g ai/ha,65
same,"Plant response rating, Crabgrass, Large",[4]; 125 g ai/ha,65
same,"Plant response rating, Crabgrass, Large",[4]; 250 g ai/ha,75
same,"Plant response rating, Johnsongrass",[5]; 31 g ai/ha,0
same,"Plant response rating, Johnsongrass",[5]; 62 g ai/ha,0
same,"Plant response rating, Johnsongrass",[5]; 125 g ai/ha,0
same,"Plant response rating, Johnsongrass",[5]; 250 g ai/ha,10
same,"Plant response rating, Lambsquarters",[6]; 31 g ai/ha,35
same,"Plant response rating, Lambsquarters",[6]; 62 g ai/ha,35
same,"Plant response rating, Lambsquarters",[6]; 125 g ai/ha,40
same,"Plant response rating, Lambsquarters",[6]; 250 g ai/ha,55
same,"Plant response rating, Oat, Wild",[7]; 31 g ai/ha,0
same,"Plant response rating, Oat, Wild",[7]; 62 g ai/ha,0
same,"Plant response rating, Oat, Wild",[7]; 125 g ai/ha,0
same,"Plant response rating, Oat, Wild",[7]; 250 g ai/ha,5
same,"Plant response rating, Oilseed Rape",[8]; 31 g ai/ha,0
same,"Plant response rating, Oilseed Rape",[8]; 62 g ai/ha,0
same,"Plant response rating, Oilseed Rape",[8]; 125 g ai/ha,30
same,"Plant response rating, Oilseed Rape",[8]; 250 g ai/ha,30
same,"Plant response rating, Pigweed",[9]; 31 g ai/ha,10
same,"Plant response rating, Pigweed",[9]; 62 g ai/ha,10
same,"Plant response rating, Pigweed",[9]; 125 g ai/ha,35
same,"Plant response rating, Pigweed",[9]; 250 g ai/ha,30
same,"Plant response rating, Ragweed",[10]; 31 g ai/ha,0
same,"Plant response rating, Ragweed",[10]; 62 g ai/ha,0
same,"Plant response rating, Ragweed",[10]; 125 g ai/ha,0
same,"Plant response rating, Ragweed",[10]; 250 g ai/ha,15
same,"Plant response rating, Velvetleaf",[11]; 31 g ai/ha,35
same,"Plant response rating, Velvetleaf",[11]; 62 g ai/ha,35
same,"Plant response rating, Velvetleaf",[11]; 125 g ai/ha,50
same,"Plant response rating, Velvetleaf",[11]; 250 g ai/ha,55
same,"Plant response rating, Wheat",[12]; 31 g ai/ha,0
same,"Plant response rating, Wheat",[12]; 62 g ai/ha,0
same,"Plant response rating, Wheat",[12]; 125 g ai/ha,0
same,"Plant response rating, Wheat",[12]; 250 g ai/ha,0
"CN1C[C@H](c2ccc(C(F)(F)F)cc2)[C@@H](C(=O)Nc2cccc(F)c2F)C1=O [Compound 623, (3S,4S)—N-(2,3-difluorophenyl)-1-methyl-2-oxo-4-[4-(trifluoromethyl)phenyl]-3-pyrrolidinecarboxamide]",Plant response rating: Russian Thistle,[13]; 31 g ai/ha,15
same,Plant response rating: Russian Thistle,[13]; 62 g ai/ha,25
same,Plant response rating: Russian Thistle,[13]; 125 g ai/ha,60
same,Plant response rating: Russian Thistle,[13]; 250 g ai/ha,70
same,"Plant response rating: Barley, Spring",[14]; 31 g ai/ha,5
same,"Plant response rating: Barley, Spring",[14]; 62 g ai/ha,15
same,"Plant response rating: Barley, Spring",[14]; 125 g ai/ha,35
same,"Plant response rating: Barley, Spring",[14]; 250 g ai/ha,65
same,"Plant response rating: Buckwheat, Wild",[15]; 31 g ai/ha,0
same,"Plant response rating: Buckwheat, Wild",[15]; 62 g ai/ha,10
same,"Plant response rating: Buckwheat, Wild",[15]; 125 g ai/ha,15
same,"Plant response rating: Buckwheat, Wild",[15]; 250 g ai/ha,45
same,Plant response rating: Canarygrass,[16]; 31 g ai/ha,25
same,Plant response rating: Canarygrass,[16]; 62 g ai/ha,70
same,Plant response rating: Canarygrass,[16]; 125 g ai/ha,85
same,Plant response rating: Canarygrass,[16]; 250 g ai/ha,85
same,Plant response rating: Deadnettle,[17]; 31 g ai/ha,25
same,Plant response rating: Deadnettle,[17]; 62 g ai/ha,65
same,Plant response rating: Deadnettle,[17]; 125 g ai/ha,75
same,Plant response rating: Deadnettle,[17]; 250 g ai/ha,75
